What follows are molecules tested on IFNγ-Induced NO Production in RAW 264.7 cells (assay: Nitric Oxide Suppression Assay (suppression of IFNγ-induced NO production)). Settings: RAW264.7; RAW 264.7 mouse macrophage cells, 20 ng/mL interferon gamma, Griess detection; single curve fit to mean data of n=2-3.
Format: cell-based
Summary of the method: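 Mouse RAW 264.7 macrophages pre-treated 2 h with compounds (3 μM to 0.3 nM, 10-point), then stimulated with IFNγ 20 ng/mL for 18 h at 37 °C. Nitrite in supernatant measured by Griess reaction, absorbance 520–550 nm. IC50 from inhibition normalized to IFNγ-alone peak; single fit to mean of n=2-3 duplicates.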

SMILES	IC50 [nM]
CC1(C)C(=O)C(C#N)=C[C@]2(C)C3=CC(=O)[C@]4(O)[C@@H]5C[C@@](C)(C(=O)N6CCCC6)CC[C@]5(C)CC[C@@]4(C)[C@]3(C)CC[C@@H]12 [Example 31, (4aR,6aR,6bS,8aS,11S,12aR,12bS,14bS)-12b-hydroxy-4,4,6a,6b,8a,11,14b-heptamethyl-3,13-dioxo-11-(pyrrolidin-1-ylcarbonyl)-3,4,4a,5,6,6a,6b,7,8,8a,9,10,11,12,12a,12b,13,14b-octadecahydropicene-2-carbonitrile]	19.3
CC(C)CNC(=O)[C@@]1(C)CC[C@]2(C)CC[C@@]3(C)[C@]4(C)CC[C@H]5C(C)(C)C(=O)C(C#N)=C[C@]5(C)C4=CC(=O)[C@]3(O)[C@@H]2C1 [Example 32, (2S,4aS,6aS,6bR,8aR,12aS,14aS,14bR)-11-cyano-14a-hydroxy-N-isobutyl-2,4a,6a,6b,9,9,12a-heptamethyl-10,14-dioxo-1,2,3,4,4a,5,6,6a,6b,7,8,8a,9,10,12a,14,14a,14b-octadecahydropicene-2-carboxamide]	8.8
CCC(C)CNC(=O)[C@@]1(C)CC[C@]2(C)CC[C@@]3(C)[C@]4(C)CC[C@H]5C(C)(C)C(=O)C(C#N)=C[C@]5(C)C4=CC(=O)[C@]3(O)[C@@H]2C1 (stereo partly drawn) [Example 33, (2S,4aS,6aS,6bR,8aR,12aS,14aS,14bR)-11-cyano-14a-hydroxy-2,4a,6a,6b,9,9,12a-heptamethyl-N-(2-methylbutyl)-10,14-dioxo-1,2,3,4,4a,5,6,6a,6b,7,8,8a,9,10,12a,14,14a,14b-octadecahydropicene-2-carboxamide]	43.7
COCCNC(=O)[C@@]1(C)CC[C@]2(C)CC[C@]3(C)[C@H](C(=O)C=C4[C@@]5(C)C=C(C#N)C(=O)C(C)(C)[C@@H]5CC[C@]43C)[C@@H]2C1 [Example 34, (2S,4aS,6aR,6bS,8aR,12aS,14aR,14bS)-11-cyano-N-(2-methoxyethyl)-2,4a,6a,6b,9,9,12a-heptamethyl-10,14-dioxo-1,2,3,4,4a,5,6,6a,6b,7,8,8a,9,10,12a,14,14a,14b-octadecahydropicene-2-carboxamide]	3
CC1(C)C(=O)C(C#N)=C[C@]2(C)C3=CC(=O)[C@@H]4[C@@H]5C[C@@](C)(C(=O)NCc6ccco6)CC[C@]5(C)CC[C@@]4(C)[C@]3(C)CC[C@@H]12 [Example 35, (2S,4aS,6aR,6bS,8aR,12aS,14aR,14bS)-11-cyano-N-(2-furylmethyl)-2,4a,6a,6b,9,9,12a-heptamethyl-10,14-dioxo-1,2,3,4,4a,5,6,6a,6b,7,8,8a,9,10,12a,14,14a,14b-octadecahydropicene-2-carboxamide]	13.8
CC1(C)C(=O)C(C#N)=C[C@]2(C)C3=CC(=O)[C@@H]4[C@@H]5C[C@@](C)(C(=O)NC6CCCCC6)CC[C@]5(C)CC[C@@]4(C)[C@]3(C)CC[C@@H]12 [Example 36, (2S,4aS,6aR,6bS,8aR,12aS,14aR,14bS)-11-cyano-N-cyclohexyl-2,4a,6a,6b,9,9,12a-heptamethyl-10,14-dioxo-1,2,3,4,4a,5,6,6a,6b,7,8,8a,9,10,12a,14,14a,14b-octadecahydropicene-2-carboxamide]	142
COCC(COC)NC(=O)[C@@]1(C)CC[C@]2(C)CC[C@]3(C)[C@H](C(=O)C=C4[C@@]5(C)C=C(C#N)C(=O)C(C)(C)[C@@H]5CC[C@]43C)[C@@H]2C1 [Example 37, (2S,4aS,6aR,6bS,8aR,12aS,14aR,14bS)-11-cyano-N-(1,3-dimethoxypropan-2-yl)-2,4a,6a,6b,9,9,12a-heptamethyl-10,14-dioxo-1,2,3,4,4a,5,6,6a,6b,7,8,8a,9,10,12a,14,14a,14b-octadecahydropicene-2-carboxamide]	15.8
Cn1cc(CNC(=O)[C@@]2(C)CC[C@]3(C)CC[C@]4(C)[C@H](C(=O)C=C5[C@@]6(C)C=C(C#N)C(=O)C(C)(C)[C@@H]6CC[C@]54C)[C@@H]3C2)cn1 [Example 38, (2S,4aS,6aR,6bS,8aR,12aS,14aR,14bS)-11-cyano-2,4a,6a,6b,9,9,12a-heptamethyl-N-[(1-methyl-1H-pyrazol-4-yl)methyl]-10,14-dioxo-1,2,3,4,4a,5,6,6a,6b,7,8,8a,9,10,12a,14,14a,14b-octadecahydropicene-2-carboxamide]	6.8
CC1(C)C(=O)C(C#N)=C[C@]2(C)C3=CC(=O)[C@@H]4[C@@H]5C[C@@](C)(C(=O)NCc6cnco6)CC[C@]5(C)CC[C@@]4(C)[C@]3(C)CC[C@@H]12 [Example 39, (2S,4aS,6aR,6bS,8aR,12aS,14aR,14bS)-11-cyano-2,4a,6a,6b,9,9,12a-heptamethyl-N-(1,3-oxazol-5-ylmethyl)-10,14-dioxo-1,2,3,4,4a,5,6,6a,6b,7,8,8a,9,10,12a,14,14a,14b-octadecahydropicene-2-carboxamide]	5.7
COC(=O)[C@]12CCC(C)(C)C[C@H]1[C@H]1C(=O)C=C3[C@@]4(C)C=C(C#N)C(=O)C(C)(C)[C@@H]4CC[C@@]3(C)[C@]1(C)CC2 [bardoxolone methyl, reference compound]	29
